Laboratory results as given in article PMC9578396, “Intrinsic Antibacterial Activity of Xeruborbactam In Vitro: Assessing Spectrum and Mode of Action” (Antimicrobial Agents and Chemotherapy, 2022).
Read-outs that look alike come from different tables or passages of the source.

Key:
Format in all cases: cell-based
Staphylococcus aureus = assay: MIC, Staphylococcus aureus (MSSA, MRSA)
Text: (§1) Bacterial isolates were subjected to broth microdilution susceptibility testing, performed according to Clinical and Laboratory Standards Institute (CLSI) methods ([46]), using panels prepared in-house. Meropenem was purchased from Sandoz, and all other antibiotics were from Sigma-Aldrich. Xeruborbactam was synthesized at Qpex Biopharma, San Diego, CA. Avibactam was purchased from eNovation Chemicals LLC, Bridgewater, NJ, USA; zidebactam was from MedKoo Biosciences, Inc., Morrisville, NC, and nacubactam was from Advanced ChemBlocks, Hayward, CA. Durlobactam was synthesized at Acme Bioscience, Palo Alto, CA, USA.

Streptococcus pneumoniae = assay: MIC, Streptococcus pneumoniae; conditions: Streptococcus pneumoniae, read-out: MIC
Text: as §1

Klebsiella pneumoniae = assay: microbe, parasite or virus in culture; conditions: Klebsiella pneumoniae, strain KPM1026a; read-out: MIC
Text: (i) Panels of engineered bacterial strains containing various combinations of porin and efflux mutations were used. The construction of all the strains used in the study is described in detail in references, [44], and [45]. (ii) KPC-producing clinical isolates and their derivatives that lost KPC plasmids were used also. These strains and their origins are described in the Table S2. (iii) Finally, KPC-producing clinical isolates enriched in strains with porin mutations were used. The mutations identified include various deletions, insertions, nonsense mutations, and decreased expression. Most of the isolates were obtained from JMI Laboratories or International Health Management Associates (IHMA); they were collected in the course of global surveillance studies.
Bacterial isolates were subjected to broth microdilution susceptibility testing, performed according to Clinical and Laboratory Standards Institute (CLSI) methods ([46]), using panels prepared in-house. […] Xeruborbactam was synthesized at Qpex Biopharma, San Diego, CA. Avibactam was purchased from eNovation Chemicals LLC, Bridgewater, NJ, USA; zidebactam was from MedKoo Biosciences, Inc., Morrisville, NC, and nacubactam was from Advanced ChemBlocks, Hayward, CA. Durlobactam was synthesized at Acme Bioscience, Palo Alto, CA, USA.

Enterococcus faecalis = assay: MIC, Enterococcus faecalis
Text: as §1

Measured: MIC

C[C@H]1COc2c(N3CCN(C)CC3)c(F)cc3c(=O)c(C(=O)O)cn1c23 [Levofloxacin]
0.125 µg/mL: Staphylococcus aureus; Staphylococcus aureus, ATCC 29213 / MSSA | Staphylococcus aureus; Staphylococcus aureus, MRSA | Staphylococcus aureus; Staphylococcus aureus, MSSA | Staphylococcus aureus; sa002, MSSA | Staphylococcus aureus; sa003, MSSA | Staphylococcus aureus; sa004, MSSA | Staphylococcus aureus; sa005, MSSA | Staphylococcus aureus; sa007, MSSA | Staphylococcus aureus; sa009, MSSA | Staphylococcus aureus; sa152, MRSA
32 µg/mL: Staphylococcus aureus; Staphylococcus aureus, MRSA, sa278, MRSA, read-out: MIC | Staphylococcus aureus; Staphylococcus aureus, MRSA, sa281, MRSA, read-out: MIC | Streptococcus pneumoniae; sp122 | Enterococcus faecalis; efs071 | Enterococcus faecalis; efs090 | Enterococcus faecalis; efs091 | Enterococcus faecalis; efs092 | Enterococcus faecalis; efs094 | Enterococcus faecalis; efs096
16 µg/mL: Staphylococcus aureus; Staphylococcus aureus, MRSA, sa148, MRSA, read-out: MIC | Staphylococcus aureus; Staphylococcus aureus, MRSA, sa151, MRSA, read-out: MIC | Staphylococcus aureus; Staphylococcus aureus, MRSA, sa153, MRSA, read-out: MIC | Enterococcus faecalis; efs072 | Enterococcus faecalis; efs093
2 µg/mL: Staphylococcus aureus; Staphylococcus aureus, MRSA, sa279, MRSA, read-out: MIC | Staphylococcus aureus; Staphylococcus aureus, MRSA, sa280, MRSA, read-out: MIC | Streptococcus pneumoniae; sp117 | Enterococcus faecalis; efs095
0.25 µg/mL: Staphylococcus aureus; Staphylococcus aureus, MRSA, sa013, MRSA, read-out: MIC | Staphylococcus aureus; Staphylococcus aureus, MSSA, sa008, MSSA, read-out: MIC | Staphylococcus aureus; Staphylococcus aureus, MSSA, sa011, MSSA, read-out: MIC | Staphylococcus aureus; Staphylococcus aureus, MSSA, sa012, MSSA, read-out: MIC
0.5 µg/mL: Streptococcus pneumoniae; sp001 | Streptococcus pneumoniae; sp002 | Streptococcus pneumoniae; sp005 | Streptococcus pneumoniae; sp006 | Streptococcus pneumoniae; sp008 | Streptococcus pneumoniae; sp123 | Enterococcus faecalis; efs003 | Enterococcus faecalis; efs026
8 µg/mL: Staphylococcus aureus; Staphylococcus aureus, MRSA, sa001, MRSA, read-out: MIC | Staphylococcus aureus; Staphylococcus aureus, MRSA, sa010, MRSA, read-out: MIC | Staphylococcus aureus; Staphylococcus aureus, MRSA, sa150, MRSA, read-out: MIC
0.06 µg/mL: Staphylococcus aureus; Staphylococcus aureus, MSSA, sa006, MSSA, read-out: MIC | Klebsiella pneumoniae
1 µg/mL: Streptococcus pneumoniae; sp003 | Streptococcus pneumoniae; sp004 | Streptococcus pneumoniae; sp007 | Streptococcus pneumoniae; sp009 | Streptococcus pneumoniae; sp118 | Streptococcus pneumoniae; sp119 | Streptococcus pneumoniae; sp120 | Streptococcus pneumoniae; sp121 | Streptococcus pneumoniae; sp125 | Streptococcus pneumoniae; sp126 | Enterococcus faecalis; efs004 | Enterococcus faecalis; efs005 | Enterococcus faecalis; efs006 | Enterococcus faecalis; efs007 | Enterococcus faecalis; efs073
